What all share (format): in vivo
One series relates to coronary vessels. In words: Dosage at which a coronary effect is observed, i.v. To be noted: for minimal effective dose: iv.
The nature of series [1]: Toxicity (Mouse), conventional LD50 determination p.o. To be noted: in vivo, po. An excerpt:
(§1) The pharmacological properties of these compounds are conveniently observed in well-known animal models which parallel the desired clinical response. Similarly toxicity is low, as measured for example in the conventional LD50 determination.

Another series deals with hypertensive rat. In words: Blood pressure effect on hypertensive rat p.o. The conditions noted are these: given as "from" dose; for minimal effective dose: po, read-out: Blood pressure effect on hypertensive rat (dose from which the effect is seen).
From the text: as §1

For a further series, the system named is Mouse. In words: Toxicity (Mouse), conventional LD50 determination p.o.
From the text: as §1

As to `C=CCOC(=O)C1=C(C)NC(C)=C(C(=O)OCC)C1c1ccccc1C` (stereo not shown) [Example 1, 2,6-dimethyl-4-(2'-methylphenyl)-1,4-dihydropyridine-3,5-dicarboxylic acid 3-ethyl ester-5-allyl ester], the minimal effective dose is 0.05 mg/kg in the series on coronary vessels and ≥ 10 mg/kg in the series on hypertensive rat. Further, in series [1], the 50% lethal dose (LD50) is > 3000 mg/kg.

In the case of `C#CCOC(=O)C1=C(C)NC(C)=C(C(=O)OCC)C1c1ccccc1C` (stereo not shown) [Example 2, 2,6-dimethyl-4-(2'-methylphenyl)-1,4-dihydropyridine-3,5-dicarboxylic acid 3-ethyl ester-5-propargyl ester], the minimal effective dose with coronary vessels is 0.01 mg/kg; in the series with hypertensive rat, ≥ 10 mg/kg. The LD50 in series [1] stood at 800 mg/kg.

Turning to `C=CCOC(=O)C1=C(C)NC(C)=C(C(=O)OC)C1c1ccccc1F` (stereo not shown) [Example 3, 2,6-dimethyl-4-(2'-fluorophenyl)-1,4-dihydropyridine-3,5-dicarboxylic acid 3-methyl ester-5-allyl ester], the figures for the minimal effective dose in the series with coronary vessels and with hypertensive rat were 0.01 mg/kg and ≥ 3.1 mg/kg, respectively. In series [1], this compound displayed an LD50 of 800 mg/kg.

Consider `C#CCOC(=O)C1=C(C)NC(C)=C(C(=O)OCC)C1c1ccccc1C(F)(F)F` (stereo not shown) [Example 4, 2,6-dimethyl-4-(2'-trifluoromethylphenyl)-1,4-dihydropyridine-3,5-dicarboxylic acid 3-ethyl ester-5-propargyl ester], for which the “Dose at which a coronary effect is observed” value in the series with coronary vessels came out at 0.005 mg/kg. In addition, the “Toxicity (Mouse) LD50” value in the series on Mouse was determined as 200 mg/kg. Moreover, in the series with hypertensive rat, the minimal effective dose was ≥ 1 mg/kg.

Regarding `C=CCOC(=O)C1=C(C)NC(C)=C(C(=O)OCC)C1c1ccccc1C(F)(F)F` (stereo not shown) [Example 5, 2,6-dimethyl-4-(2'-trifluoromethylphenyl)-1,4-dihydropyridine-3,5-dicarboxylic acid 3-ethyl ester-5-allyl ester], the minimal effective dose with coronary vessels is 0.001 mg/kg; in the series on hypertensive rat it was ≥ 3.1 mg/kg. This compound also gave a median lethal dose (LD50) in series [1] of 630 mg/kg.

For the compound `C#CCOC(=O)C1=C(C)NC(C)=C(C(=O)OC)C1c1ccccc1C(F)(F)F` (stereo not shown) [Example 6, 2,6-dimethyl-4-(2'-trifluoromethylphenyl)-1,4-dihydropyridine-3,5-dicarboxylic acid 3-methyl ester-5-propargyl ester], the minimal effective dose with coronary vessels is 0.005 mg/kg; with hypertensive rat it was ≥ 0.3 mg/kg. The compound also registered a 50% lethal dose (LD50) in series [1] of 200 mg/kg.

For the compound `CCCOCCOC(=O)C1=C(C)NC(C)=C(C(=O)OCC)C1c1ccccc1OC` (stereo not drawn) [Example 7, 2,6-dimethyl-4-(2'-methoxyphenyl)-1,4-dihydropyridine-3,5-dicarboxylic acid 3-ethyl ester-5-β-propoxyethyl ester], the minimal effective dose is 0.05 mg/kg in the series on coronary vessels and ≥ 31.5 mg/kg in the series with hypertensive rat. In addition, the LD50 in series [1] was > 3000 mg/kg.

With `C=CCOC(=O)C1=C(C)NC(C)=C(C(=O)OCC)C1c1ccccc1Cl` (stereo not shown) [Example 8, 2,6-dimethyl-4-(2'-chlorophenyl)-1,4-dihydropyridine-3,5-dicarboxylic acid 3-ethyl ester-5-allyl ester], the minimal effective dose in the series on coronary vessels is 0.01 mg/kg; in the series with hypertensive rat it was ≥ 1 mg/kg. For the same compound, in series [1], the LD50 worked out at 630 mg/kg.

`C=CCOC(=O)C1=C(C)NC(C)=C(C(=O)OCC)C1c1ccc(OC)c(OC)c1OC` (stereo not shown) [Example 9, 2,6-dimethyl-4-(2', 3', 4'-trimethoxyphenyl)-1,4-dihydropyridine-3,5-dicarboxylic acid 3-ethyl ester-5-allyl ester]: the 50% lethal dose (LD50) in series [1] turned out to be 3000 mg/kg.

In the series on coronary vessels, `C=CCOC(=O)C1=C(C)NC(C)=C(C(=O)OC)C1c1cc(Br)c(OC)c(OC)c1` (stereo not shown) [Example 10, 2,6-dimethyl-4-(3', 4'-dimethoxy-5-bromophenyl)-1,4-dihydropyridine-3,5-dicarboxylic acid 3-methyl ester-5-allyl ester] gave a minimal effective dose of 5 mg/kg. For the same compound, the LD50 in series [1] is > 3000 mg/kg.

For the compound `C#CCOC(=O)C1=C(C)NC(C)=C(C(=O)OC)C1c1ccccc1OC` (stereo not shown) [Example 11, 2,6-dimethyl-4-(2'-methoxyphenyl)-1,4-dihydropyridine-3,5-dicarboxylic acid 3-propargyl ester 5-methyl ester], the results for the minimal effective dose in the series on coronary vessels and in the series with hypertensive rat were 0.05 mg/kg and ≥ 10 mg/kg, respectively. Moreover, the 50% lethal dose (LD50) in series [1] was > 3000 mg/kg.

For the compound `C#CCOC(=O)C1=C(C)NC(C)=C(C(=O)OC)C1c1ccccc1C(F)(F)F` (stereo not shown) [Example 12, 2,6-dimethyl-4-(2'-trifluoromethylphenyl)-1,4-dihydropyridine 3,5-dicarboxylic acid 3-propargyl ester 5-methyl ester], the “Dose at which a coronary effect is observed” value with coronary vessels is on record as 0.003 mg/kg. Further, the “Toxicity (Mouse) LD50” value in the series with Mouse was determined as 100 mg/kg. In addition, the “Blood pressure effect on hypertensive rat (dose from which the effect is seen)” value in the series on hypertensive rat is ≥ 0.3 mg/kg.

As for `C#CCOC(=O)C1=C(C)NC(C)=C(C(=O)OCC)C1c1ccccc1C(F)(F)F` (stereo not shown) [Example 13, 2,6-dimethyl-4-(2'-trifluoromethylphenyl)-1,4-dihydropyridine-3,5-dicarboxylic acid 3-propargyl ester 5-ethyl ester], the “Dose at which a coronary effect is observed” value in the series with coronary vessels was determined as 0.05 mg/kg. Besides, the “Toxicity (Mouse) LD50” value in the series on Mouse worked out at 2000 mg/kg. The “Blood pressure effect on hypertensive rat (dose from which the effect is seen)” value in the series with hypertensive rat was ≥ 1.0 mg/kg.

For `CCOC(=O)C1=C(C)NC(C)=C(C(=O)OCCOC)C1c1ccccc1Cl` (stereo not drawn) [Example 14, 2,6-dimethyl-4-(2'-chlorophenyl)-1,4-dihydropyridine 3,5-dicarboxylic acid 3-β-methoxyethyl ester 5-ethyl ester], the minimal effective dose is 0.01 mg/kg with coronary vessels and ≥ 3.1 mg/kg in the series on hypertensive rat. Besides, in series [1], the LD50 amounted to 1000 mg/kg.

Take `C=CCOC(=O)C1=C(C)NC(C)=C(C(=O)OC(C)C)C1c1cccc(C(F)(F)F)c1` (stereo not shown) [Example 15, 2,6-dimethyl-4-(3'-trifluoromethylphenyl)-1,4-dihydropyridine-3,5-dicarboxylic acid 3-isopropyl ester 5-allyl ester]: the minimal effective dose is 0.05 mg/kg in the series on coronary vessels and ≥ 3.1 mg/kg in the series with hypertensive rat. The LD50 in series [1] was > 3000 mg/kg.

As to `C#CCOC(=O)C1=C(C)NC(C)=C(C(=O)OC)C1c1ccccc1F` (stereo not shown) [Example 16, 2,6-dimethyl-4-(2'-fluorophenyl)-1,4-dihydropyridine-3,5-dicarboxylic acid 3-propargyl ester 5-methyl ester], the minimal effective dose was 0.05 mg/kg in the series on coronary vessels and ≥ 10 mg/kg with hypertensive rat. Also, the LD50 in series [1] was 200 mg/kg.

Regarding `C=CCOC(=O)C1=C(C)NC(C)=C(C(=O)OCC)C1c1cccc(Cl)c1` (stereo not shown) [Example 17, 2,6-dimethyl-4-(3'-chlorophenyl)-1,4-dihydropyridine-3,5-dicarboxylic acid 3-allyl ester 5-ethyl ester], the figures for the minimal effective dose in the series on coronary vessels and with hypertensive rat were 0.01 mg/kg and ≥ 10 mg/kg, respectively. For the same compound, the LD50 in series [1] is > 3000 mg/kg.

With `C#CCOC(=O)C1=C(C)NC(C)=C(C(=O)OCC)C1c1ccccc1OC` (stereo not shown) [Example 18, 2,6-dimethyl-4-(2'-methoxyphenyl)-1,4-dihydropyridine-3,5-dicarboxylic acid 3-propargyl ester 5-ethyl ester], the minimal effective dose with coronary vessels was 0.05 mg/kg; in the series with hypertensive rat, ≥ 10 mg/kg. Besides, in series [1], the LD50 worked out at 3000 mg/kg.

With `C#CCOC(=O)C1=C(C)NC(C)=C(C(=O)OCC)C1c1ccc(C(=O)OCC)cc1` (stereo not shown) [Example 19, 2,6-dimethyl-4-(4'-carboxyethylphenyl)-1,4-dihydropyridine-3,5-dicarboxylic acid 3-propargyl ester 5-ethyl ester], the median lethal dose (LD50) in series [1] stood at 3000 mg/kg.

The record behind these values is patent US3932646A, “Pharmaceutical compositions containing unsymmetrical esters of 1,4-dihydropyridine 3,5-dicarboxylate” (Farbenfabriken Bayer AG, priority 1971, dated 1976).
